Data published in paper PMC7235863, “Benzamide Derivatives Targeting the Cell Division Protein FtsZ: Modifications of the Linker and the Benzodioxane Scaffold and Their Effects on Antimicrobial Activity” (Antibiotics, 2020).

System: S. aureus ATCC 43300
Experiment: Transmission electron microscopy of septum formation
Assay type: cell-based, Staphylococcus aureus
Conditions: MRSA cultured overnight; 1 at 1 μg/mL, DFNB at 0.25 μg/mL
Excerpt: After having assessed the antimicrobial profile of this class of derivatives, we chose 1 to be further analyzed by transmission electron microscopy (TEM), in order to evaluate any morphological changes in septum formation, as done before as a simple FtsZ target validation assay. We cultured S. aureus ATCC 43300 alone or in the presence of 1 and 2,6-difluorononyloxybenzamide (DFNB) as a reference FtsZ inhibitor (positive control). […] These are the typical effects of the inhibition of FtsZ assembly and consequently of the block of bacterial cell division.
S. aureus ATCC 43300 (10^9 cells/mL) were cultured in the presence of 1 and DFNB (positive control), at the same concentrations used for optical microscopy and, after 16 h incubation at 37 °C, the cells were harvested and processed for transmission electron microscopy, as already described. Untreated S. aureus was used as negative control. After centrifugation at 3100× g for 5 min at room temperature, pelleted bacteria were fixed in 2.5% glutaraldehyde (Polysciences, Warrington, PA) in 0.1 M Na cacodylate buffer, pH 7.4, for 1 h at 4 °C, rinsed twice and post-fixed in Na cacodylate-buffered 1% OsO4 for 1 h at 4 °C. The samples were dehydrated through a series of graded ethanol solutions and propylene oxide and embedded in Poly/Bed 812 resin mixture. […]

## CCCCCCCCCOc1ccc(F)c(C(N)=O)c1F [DFNB, 2,6-difluorononyloxybenzamide, reference compound]
  Morphological changes in septum formation (TEM): strong alterations in the septum formation and bacterial desegregation
